Data on two substances can be found in ChEMBL document CHEMBL2413030, “Multimerized CHR-derived peptides as HIV-1 fusion inhibitors” (Bioorg Med Chem, 2013).

Square brackets hold non-standard residues; d marks the D form. Nle = CCCC[C@H](N)C(=O)O

In general, CC50 refers to the concentration giving 50% cytotoxicity. Broadly, the IC50 is the concentration that gives 50% inhibition.

A short description of series [1]: Cytotoxicity against human TZM-bl cells by MTS assay. It is filed as cell-based.
For series [2], the system named is Human immunodeficiency virus 1. The experiment in a line: Antiviral activity against HIV1 NL4-3 assessed as inhibition of viral fusion with human TZM-bl cells after 48 hrs by steady glo luciferase reporter gene assay. It is filed as functional, organism-based. The following applies: Human immunodeficiency virus 1, NL4-3, TZM-bl. In general terms: A reporter such as luciferase makes a cellular process visible.

Substance enfuvirtide came in with a CC50 in series [1] of more than 5000 nM. Also, the 50% inhibitory concentration (IC50) in series [2] is 45.2 nM.
The matching figures for “H-W[Nle]EWDRKIEEYTKKIEELIKKSQEQQEKNEKELKREREREG-OH”: more than 5000 nM and 1.82 nM.
